The values below come from the PolyMetriX glass transition set.

`*C(=O)c1ccc(C(=O)c2ccc(Oc3ccc(C(C)(C)c4ccc(Oc5ccc(*)s5)cc4)cc3)s2)cc1` (repeat unit) yielded a glass transition temperature of 154.00 °C.
For `*C(=O)c1ccc(Oc2ccc(C(C)(C)c3ccc(Oc4ccc(*)s4)cc3)cc2)s1` (repeat unit) the value was 124.00 °C.
For `*C(=O)c1ccc(Oc2ccc(C(C)(C)c3ccc(Oc4ccc(C(=O)c5ccc6c(c5)C(=O)N(c5ccc(Oc7ccc(N8C(=O)c9ccc(*)cc9C8=O)cc7)cc5)C6=O)cc4)cc3)cc2)cc1` (repeat unit) the value was 217.00 °C; for `*C(=O)c1ccc(Oc2ccc(C3(c4ccc(Oc5ccc(C(=O)c6ccc7c(c6)C(=O)N(c6ccc(Oc8ccc(N9C(=O)c%10ccc(*)cc%10C9=O)cc8)cc6)C7=O)cc5)cc4)OC(=O)c4ccccc43)cc2)cc1` (repeat unit), 260.00 °C; for `*C(=O)c1ccc2nc(-c3ccc(-c4cnc5cc(*)ccc5n4)cc3)cnc2c1` (repeat unit), 318.00 °C.
The same measure for `*C(=O)c1ccc2nc(-c3ccccc3)c(-c3ccc(-c4nc5cc(*)ccc5nc4-c4ccccc4)cc3)nc2c1` (repeat unit): 325.00 °C.
As for `*C(=O)c1ccc2nc(-c3ccccc3)c(-c3ccc(-c4nc5ccc(*)cc5nc4-c4ccccc4)cc3)nc2c1` (repeat unit), the glass transition temperature turned out to be 320.00 °C.
The same measure for `*C(=O)c1ccc2nc(-c3ccccc3)c(-c3ccc(Oc4ccc(-c5nc6cc(*)ccc6nc5-c5ccccc5)cc4)cc3)nc2c1` (repeat unit): 271.00 °C; for `*C(=O)c1ccc2ncc(-c3ccc(-c4cnc5ccc(*)cc5n4)cc3)nc2c1` (repeat unit): 318.00 °C.
The same measure for `*Oc1ccc(/C=C/C(=O)c2ccc(Oc3ccc(C(C)(C)c4ccc(*)c(C)c4)cc3C)cc2)cc1` (repeat unit): 157.00 °C.
With `*Oc1ccc(/C=N/N=C/c2ccc(Oc3ccc(C(c4ccc(*)cc4)(C(F)(F)F)C(F)(F)F)cc3)cc2)cc1` (repeat unit), the glass transition temperature is 162.00 °C.
`*Oc1ccc(/N=C(\c2ccccc2)c2ccc(Oc3ccc(C(C)(C)c4ccc(Oc5ccc(/C(=N/c6ccc(*)cc6)c6ccccc6)cc5)cc4)cc3)cc2)cc1` (repeat unit) came in with a glass transition temperature of 155.00 °C.
The same measure for `*Oc1ccc(C(=O)c2ccccc2)c(-c2cc(Oc3ccc(C(C)(C)c4ccc(*)cc4)cc3)ccc2C(=O)c2ccccc2)c1` (repeat unit): 156.00 °C; for `*Oc1ccc(C(C)(C)c2ccc(C(C)(C)c3ccc(Oc4ccc(C(=O)Nc5ccc(Cc6ccc(NC(=O)c7ccc(*)cc7)cc6)cc5)cc4)cc3)cc2)cc1` (repeat unit): 162.00 °C; for `*Oc1ccc(C(C)(C)c2ccc(C(C)(C)c3ccc(Oc4ccc(C(=O)Nc5cccc(NC(=O)c6ccc(*)cc6)c5)cc4)cc3)cc2)cc1` (repeat unit): 173.00 °C.
As for `*Oc1ccc(C(C)(C)c2ccc(Oc3ccc(C(=O)c4c(C(=O)c5ccc(*)cc5)c(-c5ccccc5)c(-c5ccc6ccccc6c5)c(-c5ccc6ccccc6c5)c4-c4ccccc4)cc3)cc2)cc1` (repeat unit), the glass transition temperature was determined as 264.00 °C.
In the case of `*Oc1ccc(C(C)(C)c2ccc(Oc3ccc(C(=O)c4ccc(*)c(S(=O)(=O)O)c4)cc3S(=O)(=O)O)cc2)cc1` (repeat unit), the glass transition temperature was 175.00 °C.
The same measure for `*Oc1ccc(C(C)(C)c2ccc(Oc3ccc(C(=O)c4ccc(*)cc4)cc3)cc2)cc1` (repeat unit): 155.00 °C.
The same measure for `*Oc1ccc(C(C)(C)c2ccc(Oc3ccc(C(=O)c4ccc(C(=O)c5ccc(*)cc5)cc4)cc3)cc2)cc1` (repeat unit): 160.00 °C; for `*Oc1ccc(C(C)(C)c2cccc(C(C)(C)c3ccc(Oc4ccc(C(=O)Nc5cccc(NC(=O)c6ccc(*)cc6)c5)cc4)cc3)c2)cc1` (repeat unit): 155.00 °C.
For `*Oc1ccc(C2(c3ccc(OC(=O)c4ccc(Oc5ccc(C6(c7ccc(Oc8ccc(C(*)=O)cc8)cc7)CCC(C(C)(C)C)CC6)cc5)cc4)cc3)C3CC4CC(C3)CC2C4)cc1` (repeat unit) the value was 197.00 °C.
On to `*Oc1ccc(C2(c3ccc(Oc4ccc(C(=O)Oc5ccc(C6(c7ccc(OC(=O)c8ccc(*)cc8)cc7)CCC(c7ccccc7)CC6)cc5)cc4)cc3)CCC(C(C)(C)C)CC2)cc1` (repeat unit), for which the glass transition temperature was determined as 172.00 °C.
As to `*Oc1ccc(NC(=O)c2ccc(Oc3ccc(C(C)(C)c4cccc(C(C)(C)c5ccc(Oc6ccc(C(=O)Nc7ccc(*)cc7)cc6)cc5)c4)cc3)cc2)cc1` (repeat unit), the glass transition temperature turned out to be 155.00 °C.
Regarding `*Oc1ccc(NC(=O)c2ccc(Oc3ccc(C(C)(C)c4cccc(C(C)(C)c5ccc(Oc6ccc(C(=O)Nc7ccc(Oc8ccc(C(c9ccc(*)cc9)(C(F)(F)F)C(F)(F)F)cc8)cc7)cc6)cc5)c4)cc3)cc2)cc1` (repeat unit), the glass transition temperature stood at 154.00 °C.
The same measure for `*Oc1ccc(Oc2ccc(NC(=O)c3ccc(Oc4ccc(C(C)(C)c5cccc(C(C)(C)c6ccc(Oc7ccc(C(=O)Nc8ccc(*)cc8)cc7)cc6)c5)cc4)cc3)cc2)cc1` (repeat unit): 147.00 °C; for `*Oc1ccc(S(=O)(=O)c2ccc(Oc3ccc(C(C)(C)c4ccc(Oc5ccc(C(=O)c6ccc(*)cc6)cc5)cc4)cc3)cc2)cc1` (repeat unit): 175.00 °C.
For `*Oc1ccc(S(=O)(=O)c2ccc(Oc3ccc(NC(=O)c4ccc(Oc5ccc(C(C)(C)c6ccc(C(C)(C)c7ccc(Oc8ccc(C(=O)Nc9ccc(*)cc9)cc8)cc7)cc6)cc5)cc4)cc3)cc2)cc1` (repeat unit) the value was 177.00 °C; for `*Oc1cccc2ccc(Oc3ccc(NC(=O)c4ccc(Oc5ccc(C(C)(c6ccccc6)c6ccc(Oc7ccc(C(=O)Nc8ccc(*)cc8)cc7)cc6)cc5)cc4)cc3)cc12` (repeat unit), 212.00 °C; for `*c1ccc(-c2nc3cc(C(=O)c4ccc5nc(-c6ccccc6)c(-c6ccc(-n7c(=O)c8cc9c(=O)n(*)c(=O)c9cc8c7=O)cc6)nc5c4)ccc3nc2-c2ccccc2)cc1` (repeat unit), 240.00 °C.
The same measure for `*c1ccc(Oc2ccc(-c3nc4cc5sc(*)nc5cc4s3)cc2)cc1` (repeat unit): 350.00 °C; for `*c1ccc(Oc2ccc(-n3c(=O)c4c(Oc5ccc(OCCCCCCCCCCCC)cc5)c5c(=O)n(*)c(=O)c5c(Oc5ccc(OCCCCCCCCCCCC)cc5)c4c3=O)cc2)cc1` (repeat unit): 218.00 °C.
Compound `*c1ccc(Oc2ccc(-n3c(=O)c4cc5c(=O)n(*)c(=O)c5cc4c3=O)cc2-c2ccccc2)cc1` (repeat unit) registered a glass transition temperature of 329.00 °C.
On to `*c1ccc(Oc2ccc(-n3c(=O)c4cc5c(=O)n(-c6ccc(Oc7ccc(-c8nc9cc%10sc(*)nc%10cc9s8)cc7)cc6)c(=O)c5cc4c3=O)cc2)cc1` (repeat unit), for which the glass transition temperature was 400.00 °C.
The compound `*c1ccc(Oc2ccc(C(=O)c3ccc4cc(C(=O)c5ccc(Oc6ccc(-c7nc(-c8ccccc8)[nH]c7*)cc6)cc5)ccc4c3)cc2)cc1` (repeat unit) registered a glass transition temperature of 248.00 °C.
The compound `*c1ccc(Oc2ccc(C(=O)c3cccc(-c4cccc(C(=O)c5ccc(Oc6ccc(-c7nc(-c8cccc(-c9nc(*)c(-c%10ccccc%10)[nH]9)c8)[nH]c7-c7ccccc7)cc6)cc5)c4)c3)cc2)cc1` (repeat unit) showed a glass transition temperature of 250.00 °C.
In turn, `*c1ccc(Oc2ccc(C(=O)c3cccc(C(=O)c4ccc(Oc5ccc(-c6c7c(c(*)c8ccccc68)C(=O)N(C)C7=O)cc5)cc4)c3)cc2)cc1` (repeat unit) yielded a glass transition temperature of 251.00 °C.
For `*c1ccc(Oc2ccc(C(C)(C)c3ccc(Oc4ccc(-c5nnc(*)c6c(-c7ccccc7)c(-c7ccc8ccccc8c7)c(-c7ccc8ccccc8c7)c(-c7ccccc7)c56)cc4)cc3)cc2)cc1` (repeat unit) the value was 290.00 °C; for `*c1ccc(Oc2ccc(C(C)(C)c3ccc(Oc4ccc(-c5nnc(*)n5-c5ccc(C)cc5)cc4)cc3)cc2)cc1` (repeat unit), 205.00 °C; for `*c1ccc(Oc2ccc(C(C)(C)c3ccc(Oc4ccc(-c5nnc(*)o5)cc4)cc3)cc2)cc1` (repeat unit), 180.00 °C.
For `*c1ccc(Oc2ccc(C(c3ccc(Oc4ccc(-c5ccc(*)s5)cc4C(F)(F)F)cc3)(C(F)(F)F)C(F)(F)F)cc2)c(C(F)(F)F)c1` (repeat unit) the value was 155.00 °C; for `*c1ccc(Oc2ccc(C(c3ccc(Oc4ccc(-c5nc(-c6ccccn6)nnc5*)cc4)cc3)(C(F)(F)F)C(F)(F)F)cc2)cc1` (repeat unit), 224.00 °C.
The same measure for `*c1ccc(Oc2ccc(C(c3ccc(Oc4ccc(-c5nnc(*)n5-c5ccc(C)cc5)cc4)cc3)(C(F)(F)F)C(F)(F)F)cc2)cc1` (repeat unit): 213.00 °C.
`*c1ccc(Oc2ccc(C(c3ccc(Oc4ccc(-c5nnc(*)n5-c5ccc(S(C)(=O)=O)cc5)cc4)cc3)(C(F)(F)F)C(F)(F)F)cc2)cc1` (repeat unit): the glass transition temperature is 226.00 °C.
Take `*c1ccc(Oc2ccc(C(c3ccc(Oc4ccc(-c5nnc(*)n5-c5ccccc5)cc4)cc3)(C(F)(F)F)C(F)(F)F)cc2)cc1` (repeat unit): the glass transition temperature was found to be 203.00 °C.
Take `*c1ccc(Oc2ccc(C(c3ccc(Oc4ccc(N5C(=O)CC(=O)N(*)C5=S)cc4)cc3)(C(F)(F)F)C(F)(F)F)cc2)cc1` (repeat unit): the glass transition temperature was 147.00 °C.
For `*c1ccc(Oc2ccc(S(=O)(=O)c3ccc(Oc4ccc(-c5nc(-c6ccccc6)[nH]c5*)cc4)cc3)cc2)cc1` (repeat unit) the value was 277.00 °C; for `*c1ccc(Oc2ccc(S(=O)(=O)c3ccc(Oc4ccc(-c5nc(-c6ccccn6)nnc5*)cc4)cc3)cc2)cc1` (repeat unit), 265.00 °C.
The same measure for `*c1ccc(S(=O)(=O)c2ccc(-n3nc(-c4ccc(Oc5ccc(-c6nn(*)c(=O)c7ccccc67)cc5)cc4)c4ccccc4c3=O)cc2)cc1` (repeat unit): 295.00 °C.
